Experimental data from ChEMBL document CHEMBL1201862, “PubChem BioAssay data set” (2004).
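Exposure lasted 48 hours, with cells grown in 96-well plates and compounds tested at five concentrations. GI50 = concentration required for 50% inhibition of growth.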 Active and inactive are the calls of the source. Cut-off read from the data, not from the text of the source: active = GI50 up to about 1.1 µM and inactive = higher.

Tests used:
Experiment in all cases: inhibition of tumour cell growth, NCI panel, 48 h
[1] = test system: NCI-H23
[2] = test system: KM12
[3] = test system: HCT-116
[4] = test system: UO-31
[5] = test system: SN12C
[6] = test system: UACC-257
[7] = test system: 786-0
[8] = test system: Malme-3M
[9] = test system: SF-295
[10] = test system: EKVX
[11] = test system: SNB-78
[12] = test system: NCI-H522
[13] = test system: KM-20L2
[14] = test system: HOP-18
[15] = test system: OVCAR-5
[16] = test system: HL-60
[17] = test system: M14
[18] = test system: SW-620
[19] = test system: HCT-15
[20] = test system: OVCAR-8
[21] = test system: HCC 2998
[22] = test system: K562
[23] = test system: SF-539
[24] = test system: NCI-H226
[25] = test system: COLO 205
[26] = test system: LXFL 529
[27] = test system: SK-MEL-5
[28] = test system: ACHN
[29] = test system: RPMI-8226
[30] = test system: A549
[31] = test system: XF498
[32] = test system: IGROV-1
[33] = test system: UACC-62
[34] = test system: DMS-273
[35] = test system: SK-MEL-2
[36] = test system: RXF 631
[37] = test system: A498
[38] = test system: OVCAR-3
[39] = test system: SK-MEL-28
[40] = test system: DLD-1
[41] = test system: SNB-75
[42] = test system: SK-OV-3
[43] = test system: U-251
[44] = test system: M19-MEL
[45] = test system: SF-268
[46] = test system: CAKI-1
[47] = test system: MOLT-4
[48] = test system: NCI-H460
[49] = test system: HOP-62
[50] = test system: SNB-19
[51] = test system: RXF 393
[52] = test system: CCRF-CEM
[53] = test system: OVCAR-4
[54] = test system: DMS-114
[55] = test system: HOP-92
[56] = test system: LOX IMVI
[57] = test system: TK-10
[58] = test system: SR
[59] = test system: HT-29

Compound: CCc1cccc(C)c1NC(=O)CC1Sc2ccccc2NC1=O (stereo not drawn)
- GI50 [1]: 38 µM (inactive)
- GI50 [2]: 34.9 µM (inactive)
- GI50 [3]: 34.3 µM (inactive)
- GI50 [4]: 30.1 µM (inactive)
- GI50 [5]: > 100 µM (inactive)
- GI50 [6]: 11.4 µM (inactive)
- GI50 [7]: 29.2 µM (inactive)
- GI50 [8]: 27.3 µM (inactive)
- GI50 [9]: 95.7 µM (inactive)
- GI50 [10]: 91.8 µM (inactive)
- GI50 [11]: 34.4 µM (inactive)
- GI50 [12]: 20 µM (inactive)
- GI50 [13]: 46.5 µM (inactive)
- GI50 [14]: 19.5 µM (inactive)
- GI50 [15]: 42.4 µM (inactive)
- GI50 [16]: 18.1 µM (inactive)
- GI50 [17]: 39.4 µM (inactive)
- GI50 [18]: 37.8 µM (inactive)
- GI50 [19]: 39.3 µM
- GI50 [20]: 65.5 µM (inactive)
- GI50 [21]: 22.4 µM (inactive)
- GI50 [22]: 23.8 µM (inactive)
- GI50 [23]: 31.9 µM (inactive)
- GI50 [24]: 16 µM (inactive)
- GI50 [25]: 53.7 µM (inactive)
- GI50 [26]: 56.8 µM (inactive)
- GI50 [27]: 23.4 µM (inactive)
- GI50 [28]: 40.8 µM (inactive)
- GI50 [29]: 24.4 µM (inactive)
- GI50 [30]: 44.2 µM (inactive)
- GI50 [31]: 72.9 µM (inactive)
- GI50 [32]: 88.7 µM (inactive)
- GI50 [33]: 46.9 µM (inactive)
- GI50 [34]: 48.9 µM (inactive)
- GI50 [35]: 33.6 µM (inactive)
- GI50 [36]: 35.8 µM (inactive)
- GI50 [37]: 28.6 µM (inactive)
- GI50 [38]: 32.6 µM (inactive)
- GI50 [39]: 84.7 µM (inactive)
- GI50 [40]: 28.4 µM (inactive)
- GI50 [41]: 10.7 µM (inactive)
- GI50 [42]: 75.7 µM (inactive)
- GI50 [43]: 31.5 µM (inactive)
- GI50 [44]: 45.4 µM (inactive)
- GI50 [45]: 50.7 µM (inactive)
- GI50 [46]: 60.5 µM (inactive)
- GI50 [47]: 29.2 µM (inactive)
- GI50 [48]: 34.4 µM (inactive)
- GI50 [49]: 15.1 µM (inactive)
- GI50 [50]: 57.4 µM (inactive)
- GI50 [51]: 16.9 µM (inactive)
- GI50 [52]: 25.2 µM (inactive)
- GI50 [53]: 75.3 µM (inactive)
- GI50 [54]: 57.3 µM (inactive)
- GI50 [55]: 32.8 µM (inactive)
- GI50 [56]: 48.8 µM (inactive)
- GI50 [57]: 93.1 µM (inactive)

Compound: COc1ccc(C2(Cl)C(Cl)(C(F)(F)F)C2(Cl)C(F)(F)F)cc1 (stereo not drawn)
- GI50 [1]: 14.7 µM (inactive)
- GI50 [2]: 14 µM (inactive)
- GI50 [3]: 11.7 µM (inactive)
- GI50 [4]: 16 µM (inactive)
- GI50 [5]: 15.8 µM (inactive)
- GI50 [6]: 13.6 µM (inactive)
- GI50 [7]: 17.2 µM (inactive)
- GI50 [9]: 14.8 µM (inactive)
- GI50 [10]: 17.5 µM (inactive)
- GI50 [11]: 14.7 µM (inactive)
- GI50 [13]: 15.6 µM (inactive)
- GI50 [14]: 15.3 µM (inactive)
- GI50 [15]: 14.1 µM (inactive)
- GI50 [16]: 8.38 µM (inactive)
- GI50 [17]: 11.9 µM (inactive)
- GI50 [18]: 15 µM (inactive)
- GI50 [19]: 14.2 µM
- GI50 [20]: 12.6 µM (inactive)
- GI50 [21]: 16.3 µM (inactive)
- GI50 [22]: 20.5 µM (inactive)
- GI50 [23]: 15.2 µM (inactive)
- GI50 [24]: 15.5 µM (inactive)
- GI50 [25]: 15.9 µM (inactive)
- GI50 [26]: 13.9 µM (inactive)
- GI50 [27]: 10.4 µM (inactive)
- GI50 [28]: 16.8 µM (inactive)
- GI50 [29]: 9.64 µM (inactive)
- GI50 [30]: 14.9 µM (inactive)
- GI50 [58]: 10.2 µM (inactive)
- GI50 [31]: 12.9 µM (inactive)
- GI50 [32]: 16.5 µM (inactive)
- GI50 [33]: 13.6 µM (inactive)
- GI50 [34]: 14.3 µM (inactive)
- GI50 [35]: 14.2 µM (inactive)
- GI50 [36]: 15.2 µM (inactive)
- GI50 [59]: 14.4 µM (inactive)
- GI50 [38]: 15.5 µM (inactive)
- GI50 [39]: 15.6 µM (inactive)
- GI50 [40]: 15.7 µM (inactive)
- GI50 [41]: 14.9 µM (inactive)
- GI50 [42]: 16.7 µM (inactive)
- GI50 [43]: 14.9 µM (inactive)
- GI50 [44]: 13.6 µM (inactive)
- GI50 [45]: 15.6 µM (inactive)
- GI50 [46]: 16 µM (inactive)
- GI50 [47]: 2.62 µM (inactive)
- GI50 [48]: 15.9 µM (inactive)
- GI50 [49]: 18.4 µM (inactive)
- GI50 [50]: 15.7 µM (inactive)
- GI50 [51]: 12.1 µM (inactive)
- GI50 [52]: 3.78 µM (inactive)
- GI50 [53]: 16.4 µM (inactive)
- GI50 [54]: 12.5 µM (inactive)
- GI50 [55]: 13.9 µM (inactive)
- GI50 [56]: 6.68 µM (inactive)
- GI50 [57]: 18.1 µM (inactive)
